One may read the IC50 as the concentration needed to halve the response being measured. A lower IC50 goes with higher potency. Usually Ki stands for a dissociation constant, usually derived from enzyme kinetics or from competition with a known ligand.

Assay [1] has as its target T1, Human adenosine A2b receptor (Homo sapiens, UniProt P29275).
T1 construct: expressed in transfected cells; host or cells: CHOK1 cells
T1 sequence (P29275 1-332): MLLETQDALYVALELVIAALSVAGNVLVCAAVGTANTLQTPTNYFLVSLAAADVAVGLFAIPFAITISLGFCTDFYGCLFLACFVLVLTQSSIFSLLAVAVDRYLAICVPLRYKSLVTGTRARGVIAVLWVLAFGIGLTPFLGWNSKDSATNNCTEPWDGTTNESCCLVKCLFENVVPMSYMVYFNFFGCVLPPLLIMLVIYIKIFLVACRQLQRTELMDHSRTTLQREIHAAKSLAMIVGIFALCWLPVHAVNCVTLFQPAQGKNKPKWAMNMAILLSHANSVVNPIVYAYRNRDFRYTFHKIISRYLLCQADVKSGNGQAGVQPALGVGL
Briefly: Suppression of NECA-stimulated cAMP production in adenosine A2b receptor expressed CHOK1 cells. Type of assay: cell-based. The note with it: NECA 30 nM. The method, then:
Human adenosine A2b receptor cDNA was over-expressed in CHOK1 cells. […] Affinity of the test compound to the A2b receptor was evaluated in which the index used was the degree of suppression of the amount of cAMP produced by stimulation of NECA (30 nM) which was an adenosine agonist in the presence of the test compound. Thus, after washing with 2 ml/well of an incubation buffer (Krebs solution; pH7.4) twice, a pre-incubation was carried out at 0.5 ml/well for 30 minutes. […] After 15 minutes, the reaction was stopped by substituting 0.1N HCl (300 μl/well) for the reaction solution. Measurement of cAMP was carried out using an Amersham cAMP EIA Kit.
Calculation of the suppression rate of the test compound to the NECA-stimulated cAMP production was done by the following expression.
Inhibition Rate (%)=[1−{(cAMP amount in the presence of NECA and test compound-cAMP amount in the case of incubation buffer only)/(cAMP amount stimulated only by NECA-cAMP amount in the case of incubation buffer only)}]×100.
IC50 […]was calculated from the above.

Assay [2] relates to spontaneous diabetic mice (KK-A^y/Ta Jcl). Briefly: Action to hyperglycemia of spontaneous diabetic mice (KK-A^y/Ta Jcl), single oral administration. Type of assay: in vivo, mouse. Here is the method: Animals: Five male KK-A^y/Ta Jcl mice for each group (purchased from Nippon Clair)
Preparation and Administration of Test Compound: A test compound in a dose as shown in Table 2 was suspended in a 0.5% aqueous solution of methyl cellulose and was orally administered in a dose of 10 ml/kg.
Collection of Blood Samples and Determination of Blood Sugar: Blood was collected from tail vein immediately before administration of the test compound and also five hours after the administration and blood sugar was determined.
Method: Tail vein of a mouse was injured by a razor without an anesthetization to bleed slightly. The blood (15 μl) was collected and immediately mixed with 135 μl of a 0.6 M perchloric acid. Glucose in the supernatant obtained by a centrifugal separation (at 1500 g for 10 minutes at 4° C. using a cooling centrifuge GS-6KR of Beckmann) was determined by a Glucose CII Test Wako (Wako Pure Chemicals).
The result is shown in terms of “(% ratio of the blood sugar after 5 hours from the administration to the blood sugar before the administration)±(standard error)”. The data were subjected to a one-way layout analysis of variance and then subjected to a multiple comparison of a Dunnett type. The case where p<0.05 was judged to be that a significant difference was available.
Animals: Five male KK-A^y/Ta Jcl mice for each group (introduced from Nippon Clair)
Preparation and Administration of Test Compound: A test compound in a dose shown in Table 6 was suspended in a 0.5% aqueous solution of methyl cellulose and was orally administered in a dose of 10 ml/kg.
Method: Tail vein of mouse was injured by a razor without an anesthetization to bleed slightly. The blood (15 μl) was collected and immediately mixed with 135 μl of a 0.6 M perchloric acid. Glucose in the supernatant obtained by a centrifugal separation (at 1500 g for 10 minutes at 4° C. using a cooling centrifuge GS-6KR of Beckmann) was determined by a Glucose CII Test Wako (Wako Pure Chemicals).
The result is shown in terms of “(% ratio of the blood sugar after 5 hours from the administration to the blood sugar before the administration)±(standard error)”. The data were subjected to a one-way layout analysis of variance and then subjected to a multiple comparison of Dunnett type. The case where p<0.05 was judged that a significant difference was available.

A short description of assay [3]: Glucose tolerance test (impaired glucose tolerance). The following applies: in vivo.
In assay [4] the target is T2, Human adenosine A1 receptor (Homo sapiens, UniProt P30542).
T2 construct: expressed in transfected cells; host or cells: CHOK1 cells (membrane specimen)
T2 sequence (P30542 1-326): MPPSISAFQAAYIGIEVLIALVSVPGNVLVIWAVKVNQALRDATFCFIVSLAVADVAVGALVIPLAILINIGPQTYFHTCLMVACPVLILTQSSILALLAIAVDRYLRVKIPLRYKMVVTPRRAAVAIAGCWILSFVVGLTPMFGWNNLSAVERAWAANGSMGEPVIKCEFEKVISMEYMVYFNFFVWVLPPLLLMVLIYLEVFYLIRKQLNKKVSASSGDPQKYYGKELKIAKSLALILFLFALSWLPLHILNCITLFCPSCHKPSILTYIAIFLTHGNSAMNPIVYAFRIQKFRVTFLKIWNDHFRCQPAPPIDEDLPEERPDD
Put plainly: Adenosine A1 receptor binding experiment (3H-CCPA). The note with it: human A1 receptor expressed in CHOK1 membranes. Here is the method:
Human adenosine A1 receptor cDNA was subjected to an over-expression in CHOK1 cells and its membrane specimen was suspended in an incubation buffer (20 mM HEPES, 10 mM MgCl2 and 100 mM NaCl; pH 7.4) to make the concentration 66.7 μg/ml. To 0.45 ml of this membrane specimen were added 0.025 ml of tritium-labeled chlorocyclopentyl adenosine (60 nM ^3H-CCPA; 30 Ci/mmol) and 0.025 ml of the compound to be tested. The solution of the compound to be tested was prepared in such a manner that, firstly, the compound was dissolved in DMSO to make 20 mM concentration and then successively diluted each 10-fold using an incubation buffer. The mixture was allowed to stand at 30° C. for 120 minutes, subjected to a quick suction on a glass fiber filter (GF/B; manufactured by Whatman) and immediately washed with 5 ml of ice-cooled 50mM Tris-HCl buffer twice. After that, the glass fiber filter was transferred to a vial bottle, a scintillator was added and the radioactivity on the filter was measured by a liquid scintillation counter. Calculation of the inhibition rate of the test compound to the receptor bond (^3H-CCPA) was carried out by the following expression and, based upon that, IC50 was calculated.
Inhibition Rate (%)=[1−{(Binding amount in the presence of drug-Non-specific binding amount)/(Total binding amount-Non-specific binding amount)}]×100
Total binding amount is a ^3H-CCPA binding radioactivity in the absence of the test compound.
Non-specific binding amount is a ^3H-CCPA binding radioactivity in the presence of 100 μM of RPIA.
Binding amount in the presence of drug is a ^3H-CCPA binding radioactivity in the presence of the test compound of various concentrations.
The inhibition constant (Ki value) in Table was calculated from Cheng-Prusoff's expression.

The next assay concerns the target T3, adenosine A2a receptor (Homo sapiens, UniProt P29274).
T3 construct: purchased Receptor Biology, Inc
Briefly: Adenosine A2a receptor binding experiment (3H-CGS21680). The note with it: A2a receptor membrane specimen.

Counter-ions that a name gives are not always drawn.

T3 sequence (P29274 whole entry): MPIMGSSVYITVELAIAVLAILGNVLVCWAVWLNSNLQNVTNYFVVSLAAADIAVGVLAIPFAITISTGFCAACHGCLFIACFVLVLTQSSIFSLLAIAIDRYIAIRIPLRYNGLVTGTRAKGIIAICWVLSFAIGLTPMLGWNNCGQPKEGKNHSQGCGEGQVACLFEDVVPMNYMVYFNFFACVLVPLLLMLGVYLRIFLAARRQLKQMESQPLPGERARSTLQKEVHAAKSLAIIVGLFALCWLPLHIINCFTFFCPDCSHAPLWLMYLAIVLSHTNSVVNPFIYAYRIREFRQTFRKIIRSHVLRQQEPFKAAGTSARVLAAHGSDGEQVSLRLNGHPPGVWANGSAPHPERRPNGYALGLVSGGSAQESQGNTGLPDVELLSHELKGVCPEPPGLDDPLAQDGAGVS
Method for adenosine A2a receptor: A membrane specimen prepared by an over-expression of adenosine A2a receptor was purchased from Receptor Biology, Inc. and adenosine A2a receptor binding experiments were carried out using that. […] To 0.45 ml of this membrane specimen were added 0.025 ml of tritium-labeled ^3H-CGS21680 (500 nM; 30 Ci/mmol) and 0.025 ml of the test compound. The solution of the test compound was prepared in such a manner that, firstly, the compound was dissolved in DMSO to make 20 mM concentration and then successively diluted each 10-fold using an incubation buffer. […] After that, the glass fiber filter was transferred to a vial bottle, a scintillator was added and the radioactivity on the filter was measured by a liquid scintillation counter. Calculation of the inhibition rate of the test compound to the receptor bond (^3H-CGS21680) of A2a was carried out by the following expression and, based upon that, IC50 was calculated. […]
Total binding amount is a ^3H-CGS21680 binding radioactivity in the absence of the test compound.
Non-specific binding amount is a ^3H-CGS21680 binding radioactivity in the presence of 100 μM of RPIA.
Binding amount in the presence of drug is a ^3H-CGS21680 binding radioactivity in the presence of the test compound of various concentrations.

In assay [1], `CCn1c(-c2cccc(F)c2)nc2c(N)nc(C#CC3(O)CCC3)nc21` [Compound A] gave a half-maximal inhibitory concentration (IC50) of 28 nM. In addition, in assay [2] (Table 6-1, 10 mg/kg oral, administered in a form of sulfate, solvent group 72.4 ± 4.4), the “% ratio of the blood sugar after 5 hours from the administration to the blood sugar before the administration ± standard error” value is listed as 47.8 ± 4.8%. `Cn1c(-c2cccc(F)c2)nc2c(N)nc(C#CC3(O)CCCC3)nc21` [Compound B] showed a concentration for half-maximal inhibition (IC50) in assay [1] of 70 nM. For `Fc1cccc(-c2nc3cccnc3n2-c2ccncc2)c1` [Compound C, 2-(3-Fluorophenyl)-(4-pyridyl)-3H-imidazo[4,5-b]pyridine Hydrochloride, reference compound], the IC50 in assay [1] was found to be 100 nM. In addition, the “% ratio of the blood sugar after 5 hours from the administration to the blood sugar before the administration ± standard error” value in assay [2] (Table 6-2, 30 mg/kg oral, solvent group 69.8 ± 2.3) is 48.5 ± 3.4%. With `O=C(/C=C/c1c(-c2ccccc2)nn2ccccc12)N1CCCC[C@@H]1CCO` [FK453, reference compound], in assay [3], the “glucose tolerance improving action in glucose tolerance test (in words)” value is on record as “no glucose tolerance improving action was noted”. Also, the “hypoglycemic action in the present diabetic models (in words)” value in assay [2] (even at the dose of 100 mg/kg) is recorded as “no hypoglycemic action was noted”. `CCCn1c(=O)c2c(nc(/C=C/c3ccc(OC)c(OC)c3)n2C)n(CCC)c1=O` [KF17837]: it took 1360 nM to reach half-maximal inhibition in assay [1] (IC50). For the compound `CCn1c(-c2cccc(F)c2)nc2c(N)nc(C#CC3(O)CCC3)nc21` [drawing 259], the Ki in assay [4] came to 24 nM; at adenosine A2a receptor, 2 nM. Turning to `Fc1cccc(-c2nc3cccnc3n2-c2ccncc2)c1` [drawing 261], the Ki worked out at 54 nM in assay [4] and 750 nM on adenosine A2a receptor.
